Measurements reported in patent publication US5661165A, “((4-phenyl-1,2,5-thiadiazol-3-yl)oxy)methyl ester thiocyanic acid compounds, compositions containing them and their use as antimicrobial and marine antifouling agents” (The Dow Chemical Company, priority 1996, dated 1997).
In brackets after ≈: the same amount, converted by molar mass. Like-named read-outs stand apart in the source and are kept apart here.

Assays:
[1] = tested on: Psuedomonas aeruginosa (Pa); assay: MIC against bacteria (nutrient agar); assay type: cell-based, Psuedomonas aeruginosa ATCC 10145; details: 30° C., 48 h, read-out: Minimum Inhibitory Concentration, Pa
Description: (§1) The antimicrobial activity of the compounds of the present invention is set forth as the minimum inhibitory concentration (MIC) for the active compounds and is determined for nine (9) bacteria, using nutrient agar, and seven (7) yeast and fungi, using malt yeast agar. This determination is conducted using a one percent solution of the test compound prepared in a mixture of acetone and water.
Nutrient agar is prepared at pH 6.8, representing a neutral medium, and at pH 8.2, representing an alkaline medium. The nutrient agars are prepared by adding 23 g of nutrient agar to one-liter of deionized water. In addition, the alkaline medium is prepared by adjusting a 0.04M solution of N-[tris-(hydroxymethyl)methyl]-glycine buffered deionized water with concentrated sodium hydroxide to a pH of 8.5.
(§2) The test tubes containing the agar are cooled in a water bath until the temperature of the agar is 48° C. Then, an appropriate amount of the one percent solution of the test compound is added (except in the controls where no compound is added) to the respective test tubes so that the final concentrations are 500, 250, 100, 50, 25, 10, 5, 2.5, 1.0 and zero parts per million of the test compound in the agar, thus having a known concentration of test compound dispersed therein. The contents of the test tubes are then transferred to respective petri plates. After drying for 24 hours, the petri plates containing nutrient agar are inoculated with bacteria and those containing malt yeast agar are inoculated with yeast and fungi.
The inoculation with bacteria is accomplished by using the following procedure. Twenty-four hour-cultures of each of the bacteria are prepared by incubating the respective bacteria in tubes containing nutrient broth for 24 hours at 30° C. in a shaker. Dilutions of each of the 24 hour-cultures are made so that nine separate suspensions (one for each of the nine test bacteria) are made, each containing 10^8 colony forming units (CFU) per mL of suspension of a particular bacteria. Aliquots of 0.3 mL of each of the bacterial suspensions are used to fill the individual wells of Steer's Replicator. For each microbial suspension, 0.3 mL was used to fill three wells (i.e., three wells of 0.3 mL each) so that for the nine different bacteria, 27 wells are filled. The Steer's Replicator is then used to inoculate both the neutral and alkaline pH nutrient agar petri plates.
The inoculated petri plates are incubated at 30° C. for 48 hours and then read to determine if the test compound which is incorporated into the agar prevented growth of the respective bacteria.
(§3) Table I lists the bacteria, yeast and fungi used in the MIC test described above along with their respective American Type Culture Collection (ATCC) identification numbers.

[2] = tested on: Salmonella choleraesuis (Sc); assay: MIC against bacteria (nutrient agar); assay type: cell-based, Salmonella choleraesuis ATCC 10708; details: Salmonella enterica, 30° C., 48 h, read-out: Minimum Inhibitory Concentration, Sc
[3] = tested on: Pencillium chrysogenum (Pc); assay: MIC against yeast/fungi (malt yeast agar); assay type: cell-based, Pencillium chrysogenum ATCC 9480; details: 30° C., fungi read after 72 h, read-out: Minimum Inhibitory Concentration, Pc
Description: as §1
(§4) Malt yeast agar is prepared by adding 3 g yeast extract and 45 g malt agar per liter of deionized water. The specific agar is dispensed in 30 mL aliquots into 25×200 mm test tubes, capped and autoclaved for 15 minutes at 115° C.
as §2
(§5) The inoculation with the yeast and fungi is accomplished as follows. Cultures of yeast and fungi are incubated for seven days on malt yeast agar at 30° C. These cultures are used to prepare suspensions by the following procedure. A suspension of each organism is prepared by adding 10 mL of sterile saline and 10 microliters of octylphenoxy polyethoxy ethanol to the agar slant of yeast or fungi. The sterile saline/octylphenoxy polyethoxy ethanol solution is then agitated with a sterile swab to suspend the microorganism grown on the slant. Each resulting suspension is diluted into sterile saline (1 part suspension to 9 parts sterile saline). Aliquots of these dilutions are placed in individual wells of Steer's Replicator and petri plates inoculated as previously described. The petri plates are incubated at 30° C. and read after 48 hours for yeast and 72 hours for fungi.
as §3

[4] = tested on: Bacillus subtilis (Bs); assay: MIC against bacteria (nutrient agar); assay type: cell-based, Bacillus subtilis ATCC 8473; details: 30° C., 48 h, read-out: Minimum Inhibitory Concentration, Bs
[5] = tested on: Psuedomonas aeruginosa (PRD-10); assay: MIC against bacteria (nutrient agar); assay type: cell-based, Psuedomonas aeruginosa ATCC 15442; details: 30° C., 48 h, read-out: Minimum Inhibitory Concentration, PRD
[6] = tested on: Candida albicans (Ca); assay: MIC against yeast/fungi (malt yeast agar); assay type: cell-based, Candida albicans ATCC 10231; details: 30° C., yeast read after 48 h, read-out: Minimum Inhibitory Concentration, Ca
Description: as §1, §4, §2, §5, §3

[7] = tested on: Enterobacter aerogenes (Ea); assay: MIC against bacteria (nutrient agar); assay type: cell-based, Enterobacter aerogenes ATCC 13048; details: Klebsiella aerogenes, 30° C., 48 h, read-out: Minimum Inhibitory Concentration, Ea
[8] = tested on: Proteus vulgaris (PV); assay: MIC against bacteria (nutrient agar); assay type: cell-based, Proteus vulgaris ATCC 881; details: 30° C., 48 h, read-out: Minimum Inhibitory Concentration, Pv
[9] = tested on: Staphylococcus aureus (Sa); assay: MIC against bacteria (nutrient agar); assay type: cell-based, Staphylococcus aureus ATCC 6538; details: 30° C., 48 h, read-out: Minimum Inhibitory Concentration, Sa
[10] = tested on: Saccharomyces cerevisiae (Sc); assay: MIC against yeast/fungi (malt yeast agar); assay type: cell-based, Saccharomyces cerevisiae ATCC 4105; details: 30° C., yeast read after 48 h, read-out: Minimum Inhibitory Concentration, Sc
Description: as §1, §4, §2, §5, §3

[11] = tested on: marine organisms; assay: Marine antifouling rating on test panels exposed to the marine environment
Description: Test panels are prepared from clear, rigid polyvinyl chloride film that is 0.381×10^-3 m thick and has one textured surface. The test panels are 0.1524 m by 0.1524 m squares that have 0.00635 m holes punched at corners on 0.127 m centers. A 0.102 square template, with a 0.067 m diameter hole at the center, is attached to the center of the textured surface of the test panels.
The candidate marine antifoulant compound (1.0 g) is stirred into a resinous latex binder (9.0 g). A portion of the compound/binder mixture (1.5 g) is added to the center of the test panel and uniformly spread over the circular area inside the template.
Water is added dropwise as needed to properly spread the compound/binder mixture. The template prevents the compound/binder mixture from spreading beyond the uncovered area. The test panel is allowed to sit for between 10 to 30 minutes until the edge of the spread compound/binder mixture has dried. The template is then removed. The test panel is then allowed to dry for 8 to 12 hours at room temperature.
Two test panels are prepared for each candidate marine antifoulant compound. Two control test panels are also prepared by only treating with the resinous latex binder. One test panel of each candidate marine antifoulant compound is attached over a white background to the topside of an exposure support apparatus. The second test panel is attached over a black background to the underside of the exposure support apparatus. The exposure support apparatus is placed horizontally 0.0254 m under a marine surface with the white background topside facing up. […]
After being removed from the exposure support apparatus, each test panel is inspected and rated for marine organism growth on both the treated and untreated areas of the test panel. The marine organisms present on the treated and untreated areas are noted. The presence of algae spores and bacterial slime are noted but not included in rating each test panel. The test panels are rated on a scale from 10 (representing completely free of marine organism growth) to 0 (representing completely covered with marine organism growth).
In Table IV, the marine antifouling rating values for ((4-phenyl-1,2,5-thiadiazol-3-yl)oxy)methyl ester is set forth, as well as the ratings for control panels (with no marine antifouling compound and referred to as "Control").

[12] = tested on: Trichoderma viride (Tv); assay: MIC against yeast/fungi (malt yeast agar); assay type: cell-based, Trichoderma viride ATCC 8678; details: 30° C., fungi read after 72 h, read-out: Minimum Inhibitory Concentration, Tv
Description: as §1, §4, §2, §5, §3

[13] = tested on: Aperigillus niger (An); assay: MIC against yeast/fungi (malt yeast agar); assay type: cell-based, Aperigillus niger ATCC 16404; details: 30° C., fungi read after 72 h, read-out: Minimum Inhibitory Concentration, An
Description: as §1, §4, §2, §5, §3

[14] = tested on: Aureobasidium pullulan (Ap); assay: MIC against yeast/fungi (malt yeast agar); assay type: cell-based, Aureobasidium pullulan ATCC 16622; details: 30° C., yeast 48 h / fungi 72 h, read-out: Minimum Inhibitory Concentration, Ap
Description: as §1, §4, §2, §5, §3

[15] = tested on: Fusarium oxysporum (Fo); assay: MIC against yeast/fungi (malt yeast agar); assay type: cell-based, Fusarium oxysporum ATCC 48112; details: 30° C., fungi read after 72 h, read-out: Minimum Inhibitory Concentration, Fo
Description: as §1, §4, §2, §5, §3

[16] = tested on: Escherichia coli (Ec); assay: MIC against bacteria (nutrient agar); assay type: cell-based, Escherichia coli ATCC 11229; details: 30° C., 48 h, read-out: Minimum Inhibitory Concentration, Ec
[17] = tested on: Klebsiella pneumoniae (Kp); assay: MIC against bacteria (nutrient agar); assay type: cell-based, Klebsiella pneumoniae ATCC 8308; details: 30° C., 48 h, read-out: Minimum Inhibitory Concentration, Kp
[18] = 16 weeks, scale 10 (completely free of growth) to 0 (completely covered), control --

Structure (SMILES)	MIC ([1]; pH 6.8, nutrient agar) [µg/mL]	MIC ([1]; pH 8.2, nutrient agar) [µg/mL]	MIC ([2]; pH 6.8, nutrient agar) [µg/mL]	MIC ([2]; pH 8.2, nutrient agar) [µg/mL]	MIC [3] [µg/mL]	MIC ([4]; pH 6.8, nutrient agar) [µg/mL]	MIC ([4]; pH 8.2, nutrient agar) [µg/mL]	MIC ([5]; pH 6.8, nutrient agar) [µg/mL]	MIC ([5]; pH 8.2, nutrient agar) [µg/mL]	MIC [6] [µg/mL]	MIC ([7]; pH 6.8, nutrient agar) [µg/mL]	MIC ([7]; pH 8.2, nutrient agar) [µg/mL]	MIC ([8]; pH 6.8, nutrient agar) [µg/mL]	MIC ([8]; pH 8.2, nutrient agar) [µg/mL]	MIC ([9]; pH 6.8, nutrient agar) [µg/mL]	MIC ([9]; pH 8.2, nutrient agar) [µg/mL]	MIC [10] [µg/mL]	MIC [12] [µg/mL]	MIC [13] [µg/mL]	MIC [14] [µg/mL]	also measured
N#CSCOc1nsnc1-c1ccccc1 [Example I, ((4-Phenyl-1,2,5-thiadiazol-3-yl)oxy)methyl ester thiocyanic acid]	> 500	> 500	500 (≈ 2010 µM)	> 500	< 1	< 10	< 10	> 500	> 500	2.5 (≈ 10 µM)	> 500	500 (≈ 2010 µM)	> 500	500 (≈ 2010 µM)	25 (≈ 100 µM)	25 (≈ 100 µM)	2.5 (≈ 10 µM)	25 (≈ 100 µM)	< 1	< 1	Marine Antifouling Rating, Bottom Panel ([11]; 6 weeks, scale 10 (completely free of growth) to 0 (completely covered), control 0): 9; Marine Antifouling Rating, Top Panel ([11]; 6 weeks, scale 10 (completely free of marine organism growth) to 0 (completely covered), control 6): 8; Marine Antifouling Rating, Bottom Panel ([11]; 10 weeks, scale 10 (completely free of growth) to 0 (completely covered), control 0): 7; Marine Antifouling Rating, Top Panel ([11]; 10 weeks, scale 10 (completely free of growth) to 0 (completely covered), control 3): 3; Marine Antifouling Rating, Bottom Panel [11, 18]: 2; Marine Antifouling Rating, Top Panel [11, 18]: 8; MIC [15]: 5 µg/mL (≈ 20.1 µM); MIC ([16]; pH 6.8, nutrient agar): 500 µg/mL (≈ 2010 µM); MIC ([16]; pH 8.2, nutrient agar): > 500 µg/mL; MIC ([17]; pH 6.8, nutrient agar): 500 µg/mL (≈ 2010 µM); MIC ([17]; pH 8.2, nutrient agar): 500 µg/mL (≈ 2010 µM)
N#CSCOc1nsnc1-c1cccc(F)c1 [III, ((4(3Fluorophenyl)-1,2,5-thiadiazol-3-yl)oxy)methyl ester thiocyanic acid]	> 500	> 500	500 (≈ 1870 µM)	> 500	< 1	< 10	< 10	> 500	> 500	5 (≈ 18.7 µM)	> 500	500 (≈ 1870 µM)	> 500	500 (≈ 1870 µM)	< 10	25 (≈ 93.5 µM)	< 1	500 (≈ 1870 µM)	< 1	< 1	MIC [15]: 100 µg/mL (≈ 374 µM); MIC ([16]; pH 6.8, nutrient agar): 500 µg/mL (≈ 1870 µM); MIC ([16]; pH 8.2, nutrient agar): > 500 µg/mL; MIC ([17]; pH 6.8, nutrient agar): 500 µg/mL (≈ 1870 µM); MIC ([17]; pH 8.2, nutrient agar): 500 µg/mL (≈ 1870 µM)
